Source: paper PMC12613848, “First in human phase 1 study of DT2216, a selective BCL-xL degrader, in patients with relapsed/refractory solid malignancies” (Journal of Hematology & Oncology, 2025)
Like-named read-outs stand apart in the source and are kept apart here.

Test: Plasma pharmacokinetics of DT2216 in patients, phase 1 dose escalation
Format: in vivo, human
Settings: human, plasma, iv, plasma; for clearance: read-out: CL (converted); for half-life: read-out: T½ (converted); for Vd: read-out: Vdss; for Tmax: median (min, max)
Protocol: Dose escalation consisted of the administration of DT2216 intravenously twice weekly at several different doses outlined in protocol attached. The starting dose was 0.04 mg/kg, established based on pre-clinical toxicity studies. Safety was evaluated using CTCAE version 5.0. The initial three dose levels enrolled one patient, following which for dose level 4 and 5, a 3 + 3 design was utilized following a 100% incremental dose increase for dose levels 2 to 5 until the first dose limiting toxicity (DLT) in cycle 1 was observed. Thereafter, a modified Fibonacci sequence was used to define dose escalation increments until the maximum tolerated dose (MTD) was reached as described in protocol. If no dose-limiting toxicity (DLT) was observed during the DLT monitoring period of first 28 days, the next patient was enrolled at the next higher dose level. Dose-limiting toxicities (DLTs) during the first treatment cycle were defined as any Grade 5 toxicity; Grade 4 neutropenia lasting > 7 days; febrile neutropenia; Grade 4 thrombocytopenia or Grade 3 thrombocytopenia with clinically significant hemorrhage or lasting ≥ 7 days; and Grade ≥ 3 non-hematologic toxicities, excluding nausea, vomiting, or diarrhea lasting ≤ 3 days or transient laboratory abnormalities resolving within 72 h. Hepatotoxicity meeting Hy’s law criteria was also considered a DLT. Transient Grade 3–4 electrolyte abnormalities resolving to ≤ Grade 2 within 72 h were not considered DLTs.
Patients were allowed a maximum of two intra-patient dose escalations. Patients received DT2216 by intravenous infusion on days 1 and 4 weekly for at least 4 weeks, with each cycle consisting of a 28-day cycle for a maximum duration of 1 year until disease progression, unacceptable toxicity, or other withdrawal criteria, as listed in the protocol. The extent of disease was evaluated using imaging studies and disease-appropriate tumor markers every 8 weeks from day 1 of the first cycle. RP2D was established based on MTD as well as other relevant data, including clinical signals of activity, PK, and PD data.
Premedication prior to each infusion was at the discretion of the investigator or according to institutional guidelines. Patient assessment and follow-up procedures can be found in the schedule of assessments in this study. The clinical response was evaluated using RECIST v1.1 per protocol. Blood samples were collected for PK analysis before and after post-infusion at defined intervals, along with platelet counts. Exploratory biomarkers include (but are not limited to) the assessment of BCL-XL and VHL levels in peripheral white blood cells (WBC).
Throughout the course of the dose escalation trial, only one dose-limiting toxicity was observed, with grade 4 thrombocytopenia at a dose level of 0.32 mg/kg. […] The pharmacokinetic parameters of DT2216 were determined in patients following doses on Cycle 1 Day 1 and Cycle 1 Day 22 (Tables 4 and 5). […] AUC0-∞ values ranged from 8650 to 72,300 ng · h/mL over the dose range of 0.04 mg/kg 0.4 mg/kg. […] The volume of distribution at steady state (Vss) was small (< 100 mL/kg) and consistent across the dose groups. Following repeated dosing, accumulation of DT2216 in plasma was not observed with twice weekly dosing, with accumulation ratio values ranging from 0.74 to 1.07 on Cycle 1 Day 22 ([…]) across the dose groups.

[1] = 0.12 mg/kg, Cycle 1 Day 22, 0.12 mg/kg IV BIW, mean (CV%), N = 1
[2] = 0.24 mg/kg, Cycle 1 Day 1, 0.24 mg/kg IV, mean (CV%), N = 7
[3] = 0.24 mg/kg, Cycle 1 Day 22, 0.24 mg/kg IV BIW, mean (CV%), N = 6
[4] = 0.32 mg/kg, Cycle 1 Day 1, 0.32 mg/kg IV, mean (CV%), N = 5
[5] = 0.32 mg/kg, Cycle 1 Day 22, 0.32 mg/kg IV BIW, mean (CV%), N = 5
[6] = 0.4 mg/kg, Cycle 1 Day 1, 0.4 mg/kg IV, mean (CV%), N = 4
[7] = 0.4 mg/kg, Cycle 1 Day 22, 0.4 mg/kg IV BIW, mean (CV%), N = 4

Cc1ncsc1-c1ccc([C@H](C)NC(=O)[C@@H]2C[C@@H](O)CN2C(=O)[C@@H](NC(=O)CCCCCC(=O)N2CCN(CC[C@H](CSc3ccccc3)Nc3ccc(S(=O)(=O)NC(=O)c4ccc(N5CCN(CC6=C(c7ccc(Cl)cc7)CCC(C)(C)C6)CC5)cc4)cc3S(=O)(=O)C(F)(F)F)CC2)C(C)(C)C)cc1 [DT2216]
clearance [1]: 0.138 mL/min/kg
Cmax (0.12 mg/kg, Cycle 1 Day 22, 0.12 mg/kg IV BIW, mean (CV%), N = 1, read-out: Cmax): 2190 ng/mL
half-life [1]: 5.24 h
Vd [1]: 0.0665 L/kg
Tmax (0.12 mg/kg, Cycle 1 Day 22, 0.12 mg/kg IV BIW, N = 1): 2.5 h
AUC(0-t) (0.24 mg/kg, Cycle 1 Day 1, 0.24 mg/kg IV, mean (CV%), N = 6, read-out: AUC0−24): 24500 ng·h/mL
AUC(0-t) (0.24 mg/kg, Cycle 1 Day 1, 0.24 mg/kg IV, mean (CV%), N = 6, read-out: AUClast): 37600 ng·h/mL
AUC(0-inf) (0.24 mg/kg, Cycle 1 Day 1, 0.24 mg/kg IV, mean (CV%), N = 7, read-out: AUC0−∞): 36500 ng·h/mL
clearance [2]: 0.122 mL/min/kg
Cmax (0.24 mg/kg, Cycle 1 Day 1, 0.24 mg/kg IV, mean (CV%), N = 7, read-out: Cmax): 4080 ng/mL
half-life [2]: 10.4 h
Vd [2]: 0.0839 L/kg
Tmax (0.24 mg/kg, Cycle 1 Day 1, 0.24 mg/kg IV, N = 7): 0.75 h
AUC(0-t) (0.24 mg/kg, Cycle 1 Day 22, 0.24 mg/kg IV BIW, mean (CV%), N = 6, read-out: AUC0−24): 26300 ng·h/mL
AUC(0-inf) (0.24 mg/kg, Cycle 1 Day 22, 0.24 mg/kg IV BIW, mean (CV%), N = 6, read-out: AUC0−∞): 30100 ng·h/mL
AUC(0-t) (0.24 mg/kg, Cycle 1 Day 22, 0.24 mg/kg IV BIW, mean (CV%), N = 6, read-out: AUClast): 26400 ng·h/mL
clearance [3]: 0.15 mL/min/kg
Cmax (0.24 mg/kg, Cycle 1 Day 22, 0.24 mg/kg IV BIW, mean (CV%), N = 6, read-out: Cmax): 3090 ng/mL
half-life [3]: 7.27 h
Vd [3]: 0.0939 L/kg
Tmax (0.24 mg/kg, Cycle 1 Day 22, 0.24 mg/kg IV BIW, N = 6): 2.5 h
AUC(0-inf) (0.32 mg/kg, Cycle 1 Day 1, 0.32 mg/kg IV, mean (CV%), N = 5, read-out: AUC0−∞): 41500 ng·h/mL
clearance [4]: 0.132 mL/min/kg
half-life [4]: 7.09 h
Vd [4]: 0.0683 L/kg
AUC(0-t) (0.32 mg/kg, Cycle 1 Day 1, 0.32 mg/kg IV, mean (CV%), N = 6, read-out: AUC0−24): 33300 ng·h/mL
AUC(0-t) (0.32 mg/kg, Cycle 1 Day 1, 0.32 mg/kg IV, mean (CV%), N = 6, read-out: AUClast): 43200 ng·h/mL
Cmax (0.32 mg/kg, Cycle 1 Day 1, 0.32 mg/kg IV, mean (CV%), N = 6, read-out: Cmax): 5710 ng/mL
Tmax (0.32 mg/kg, Cycle 1 Day 1, 0.32 mg/kg IV, N = 6): 0.75 h
AUC(0-t) (0.32 mg/kg, Cycle 1 Day 22, 0.32 mg/kg IV BIW, mean (CV%), N = 5, read-out: AUC0−24): 32700 ng·h/mL
AUC(0-inf) (0.32 mg/kg, Cycle 1 Day 22, 0.32 mg/kg IV BIW, mean (CV%), N = 5, read-out: AUC0−∞): 35000 ng·h/mL
AUC(0-t) (0.32 mg/kg, Cycle 1 Day 22, 0.32 mg/kg IV BIW, mean (CV%), N = 5, read-out: AUClast): 32900 ng·h/mL
clearance [5]: 0.154 mL/min/kg
half-life [5]: 5.82 h
Vd [5]: 0.0837 L/kg
Cmax (0.32 mg/kg, Cycle 1 Day 22, 0.32 mg/kg IV BIW, mean (CV%), N = 6, read-out: Cmax): 4480 ng/mL
Tmax (0.32 mg/kg, Cycle 1 Day 22, 0.32 mg/kg IV BIW, N = 6): 2.5 h
AUC(0-t) (0.4 mg/kg, Cycle 1 Day 1, 0.4 mg/kg IV, mean (CV%), N = 4, read-out: AUC0−24): 53000 ng·h/mL
AUC(0-inf) (0.4 mg/kg, Cycle 1 Day 1, 0.4 mg/kg IV, mean (CV%), N = 4, read-out: AUC0−∞): 73200 ng·h/mL
AUC(0-t) (0.4 mg/kg, Cycle 1 Day 1, 0.4 mg/kg IV, mean (CV%), N = 4, read-out: AUClast): 72300 ng·h/mL
clearance [6]: 0.0928 mL/min/kg
Cmax (0.4 mg/kg, Cycle 1 Day 1, 0.4 mg/kg IV, mean (CV%), N = 4, read-out: Cmax): 8590 ng/mL
half-life [6]: 10.7 h
Vd [6]: 0.0709 L/kg
Tmax (0.4 mg/kg, Cycle 1 Day 1, 0.4 mg/kg IV, N = 4): 0.75 h
AUC(0-t) (0.4 mg/kg, Cycle 1 Day 22, 0.4 mg/kg IV BIW, mean (CV%), N = 4, read-out: AUC0−24): 53700 ng·h/mL
AUC(0-inf) (0.4 mg/kg, Cycle 1 Day 22, 0.4 mg/kg IV BIW, mean (CV%), N = 4, read-out: AUC0−∞): 59500 ng·h/mL
AUC(0-t) (0.4 mg/kg, Cycle 1 Day 22, 0.4 mg/kg IV BIW, mean (CV%), N = 4, read-out: AUClast): 54000 ng·h/mL
clearance [7]: 0.117 mL/min/kg
Cmax (0.4 mg/kg, Cycle 1 Day 22, 0.4 mg/kg IV BIW, mean (CV%), N = 4, read-out: Cmax): 6270 ng/mL
half-life [7]: 6.7 h
Vd [7]: 0.0729 L/kg
Tmax (0.4 mg/kg, Cycle 1 Day 22, 0.4 mg/kg IV BIW, N = 4): 2.5 h
AUC(0-inf) (over dose range 0.04 mg/kg to 0.4 mg/kg IV, read-out: AUC0-∞ values): 8650 to 72300 ng·h/mL
Cmax (over dose range 0.04 mg/kg to 0.4 mg/kg IV, read-out: mean Cmax values): 738 to 8590 ng/mL
